Assay results published in BindingDB's records for doi:10.1021/jm00129a030 (Takeda Chemical Industries, 1989).

Target: Thromboxane A2 receptor (Cavia porcellus)
Test: In vitro concentration that reduced specific binding of [3H][…] to guinea pig platelet receptor, Thromboxane A2 receptor by 50%

IC50: 0.031 µM
SMILES: CCCCC[C@H](O)/C=C/[C@@H]1[C@@H](C/C=C\CCCC(=O)O)[C@H]2CO[C@@H]1C2 [(Z)-7-((1R,4S,5S,6R)-6-((S,E)-3-hydroxyoct-1-enyl)-2-oxabicyclo[2.2.1]heptan-5-yl)hept-5-enoic acid]
